Measurements reported in publication PMC10146250, “Study on the liver Drug’s dominant metabolic enzymes for six effective components of the Huang qi Liuyi decoction” (Frontiers in Pharmacology, 2023).

Legend:
[1] = Metabolic conversion in the liver microsomal incubation system without inhibitor; conditions: for Metabolic conversion rate under different reaction times: 0, 15, 30, 45, 60, 90 min at 37°C; for Metabolic conversion rate at different protein concentrations: liver microsomal protein 0, 0.25, 0.5, 0.75, 1, 2 mg/mL, 60 min
Procedure: Before the experiment, the mice were fasted for 12 h, and were euthanized after blood was taken from the eye sockets. The liver was quickly removed and perfused with pre-cooled saline through the hepatic portal vein until the liver was earthy yellow, washed three times with 1.15% KCl solution, wiped dry with filter paper, and then weighed. The liver was then cut up, homogenized with three times the volume of ethylene diamine tetraacetic acid (EDTA) in an ice bath, and centrifuged at 4°C for 10 min at 3,000 g. The supernatant was filtered, and the filtrate was centrifuged at 4°C for 20 min at 12,000 g. The supernatant was then centrifuged at 4°C for 45 min at 100,000 g, and the precipitate was resuspended in a resuspension solution (EDTA homogenate containing 20% glycerol). The protein concentration of the microsomes was determined using the BCA protein concentration determination kit, and the microsomes were aliquoted and pre-stored at −20°C for 60 min and transferred to −80°C for storage.
The total volume of the reaction was kept at 200 μL. The in vitro incubation system comprised of 50 μL liver microsomes (1 mg/mL), 50 μL specific inhibitor solution, 20 μL nicotinamide adenine dinucleotide phosphate (NADPH, 1 mmol/L), and 80 μL standard solution (100 ng/mL). The solution containing liver microsomes, specific inhibitors, and the standard solution was pre-incubated for 5 min at 37°C. NADPH, pre-incubated for 5 min at 37°C, was added to commence the reaction, and the solution was incubated for 60 min at 37°C on a thermostatic oscillator. At the end of the reaction, […] of ice-cold methanol containing the IS (the final concentrations of digoxin and puerarin were 0.745 μg/mL and 1 μg/mL, respectively) was added to terminate the reaction. The samples were vortexed for 1 min and centrifuged for 10 min (15,000 r/min). The contents of six active components in the supernatant were determined by HPLC-MS-MS. All reactions were performed in triplicate.
The six-component mixed standard solutions were incubated with the liver microsomal sample of different protein concentrations (0, 0.25, 0.5, 0.75, 1, 2 mg/mL) for 60 min, each with six replicates. Subsequently, samples were prepared according to the methods described in Section 2.6. The residual contents of the six effective components in each group were determined by HPLC-MS/MS to calculate the metabolic conversion rate.
The mixed standard solution containing the six components was incubated with mouse liver microsomes at 37°C for different time (0, 15, 30, 45, 60, 90 min), each with six replicates. Subsequently, samples were prepared according to the methods described in Section 2.6. The residual contents of the six effective components in each group were determined by HPLC-MS/MS to calculate the metabolic conversion rate.
The standard solution of astragaloside IV, glycyrrhizic acid, calycosin-glucuronide, formononetin, calycosin-7-O-β-D-glucoside, and ononin was added to phosphate-buffered saline (PBS, pH 7.0) as desired for dilution to produce a series of mixed solutions (50, 100, 250, 500, 1,000 ng/mL). Each mixed solution sample was incubated with 1.0 mg/mL liver microsomes for 60 min. The residual contents of the six effective components were determined by HPLC-MS/MS to calculate the metabolic conversion rate.
Α-naphthoflavone, quinidine, clomethiazole, ticlopidine, ketoconazole, and fluconazole were selected as specific inhibitors of CYP1A2, CYP2D22, CYP2E1, CYP2C37, CYP3A11, and CYP2C11, respectively ([El-Sherbeni and El-Kadi, 2014]; [Xu et al., 2016]). Forty-eight mice were randomly divided into eight groups of six mice each. The eight groups comprised six different specific inhibitor groups, a negative control group and a control group. For different specific inhibitor groups, mouse liver microsomes were incubated with related CYP450 enzyme specific inhibitors and mixed standard solutions.

CYP3A11 = experiment: Mouse liver microsomal incubation with ketoconazole, specific inhibitor of CYP3A11; type: in vitro ADME; conditions: mouse liver microsomes 1 mg/mL, 60 min, 37°C, component 100 ng/mL, vs negative control without inhibitor
Procedure: (§1) All reactions were performed in triplicate.

[2] = design: method as in Wang et al., 2022c; conditions: oral administration of HQD, ref Wang et al., 2022c; cited from earlier work
CYP2C37 = molecular target: T1, CYP2C37 (Mus musculus, UniProt P56654); experiment: Mouse liver microsomal incubation with ticlopidine, specific inhibitor of CYP2C37; type: in vitro ADME; conditions: mouse liver microsomes 1 mg/mL, 60 min, 37°C, component 100 ng/mL, vs negative control without inhibitor
T1 construct: from tissue; host or cells: liver microsomes of control (db/m) mice
T1 sequence (P56654 21-490): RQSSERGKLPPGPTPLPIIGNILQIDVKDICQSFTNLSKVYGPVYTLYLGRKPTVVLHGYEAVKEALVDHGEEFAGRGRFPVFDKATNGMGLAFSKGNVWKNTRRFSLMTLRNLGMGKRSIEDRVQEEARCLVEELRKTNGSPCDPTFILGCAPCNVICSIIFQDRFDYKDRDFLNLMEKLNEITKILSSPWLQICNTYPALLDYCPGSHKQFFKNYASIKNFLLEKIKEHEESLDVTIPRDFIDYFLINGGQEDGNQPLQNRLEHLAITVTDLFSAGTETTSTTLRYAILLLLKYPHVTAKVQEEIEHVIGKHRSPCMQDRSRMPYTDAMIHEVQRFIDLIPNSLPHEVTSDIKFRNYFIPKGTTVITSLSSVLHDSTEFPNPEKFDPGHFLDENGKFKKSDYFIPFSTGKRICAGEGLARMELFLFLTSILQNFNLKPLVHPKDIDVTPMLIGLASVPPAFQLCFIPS
Procedure: as §1

liver CYP450 enzymes = experiment: Mouse liver microsomal incubation with the panel of specific CYP enzyme inhibitors; type: in vitro ADME; conditions: mouse liver microsomes 1 mg/mL, 60 min, 37°C, component 100 ng/mL; inhibitors of CYP1A2, CYP2D22, CYP2E1, CYP2C37, CYP3A11, CYP2C11
Procedure: as §1

CYP2C11 = experiment: Mouse liver microsomal incubation with fluconazole, specific inhibitor of CYP2C11; type: in vitro ADME; conditions: mouse liver microsomes 1 mg/mL, 60 min, 37°C, component 100 ng/mL, vs negative control without inhibitor
Procedure: as §1

CYP2E1 = molecular target: T2, CYP2E1 (Mus musculus, UniProt Q05421); experiment: Mouse liver microsomal incubation with clomethiazole, specific inhibitor of CYP2E1; type: in vitro ADME; conditions: mouse liver microsomes 1 mg/mL, 60 min, 37°C, component 100 ng/mL, vs negative control without inhibitor
T2 construct: from tissue; host or cells: liver microsomes of control (db/m) mice
Procedure: as §1

CYP1A2 = molecular target: T3, CYP1A2 (Mus musculus, UniProt P00186); experiment: Mouse liver microsomal incubation with α-naphthoflavone, specific inhibitor of CYP1A2; type: in vitro ADME; conditions: mouse liver microsomes 1 mg/mL, 60 min, 37°C, component 100 ng/mL, vs negative control without inhibitor
T3 construct: from tissue; host or cells: liver microsomes of control (db/m) mice
T3 sequence (P00186 1-513): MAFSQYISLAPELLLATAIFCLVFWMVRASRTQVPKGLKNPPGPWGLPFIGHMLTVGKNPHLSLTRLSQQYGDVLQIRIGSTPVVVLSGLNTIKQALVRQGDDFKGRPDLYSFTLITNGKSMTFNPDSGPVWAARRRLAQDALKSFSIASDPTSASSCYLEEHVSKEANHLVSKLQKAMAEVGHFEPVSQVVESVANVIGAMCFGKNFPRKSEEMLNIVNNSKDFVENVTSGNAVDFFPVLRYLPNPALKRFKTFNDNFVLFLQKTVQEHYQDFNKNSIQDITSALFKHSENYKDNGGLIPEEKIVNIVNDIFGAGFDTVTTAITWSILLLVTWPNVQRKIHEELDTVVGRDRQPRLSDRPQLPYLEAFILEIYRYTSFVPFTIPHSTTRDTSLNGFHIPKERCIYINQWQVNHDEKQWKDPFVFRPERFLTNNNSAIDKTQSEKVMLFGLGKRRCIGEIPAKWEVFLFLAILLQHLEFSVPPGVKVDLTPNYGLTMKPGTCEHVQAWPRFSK
Procedure: as §1

T2 sequence (Q05421 whole entry): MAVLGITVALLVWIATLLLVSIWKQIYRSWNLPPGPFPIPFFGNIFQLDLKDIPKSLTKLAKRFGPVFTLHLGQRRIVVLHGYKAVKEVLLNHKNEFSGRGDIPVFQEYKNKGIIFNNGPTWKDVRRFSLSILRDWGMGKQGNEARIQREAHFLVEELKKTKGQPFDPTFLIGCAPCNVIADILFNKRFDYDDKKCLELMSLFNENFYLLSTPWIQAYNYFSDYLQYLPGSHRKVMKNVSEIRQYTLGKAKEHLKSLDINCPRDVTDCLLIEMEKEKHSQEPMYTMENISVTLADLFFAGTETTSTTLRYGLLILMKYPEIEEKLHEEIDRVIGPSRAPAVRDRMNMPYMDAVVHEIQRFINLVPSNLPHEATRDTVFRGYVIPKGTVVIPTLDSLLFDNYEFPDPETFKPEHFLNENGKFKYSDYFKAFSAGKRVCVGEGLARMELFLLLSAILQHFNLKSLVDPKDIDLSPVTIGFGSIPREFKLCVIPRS

Effect of ketoconazole (CYP3A11 inhibitor) on metabolism of the component (residual content) (CYP3A11) | Effect of the specific CYP enzyme inhibitors on metabolism of the component (liver CYP450 enzymes) | Effect of clomethiazole (CYP2E1 inhibitor) on metabolism of the component (residual content) (CYP2E1) | Effect of α-naphthoflavone (CYP1A2 inhibitor) on metabolism of the component (residual content) (CYP1A2) | SMILES | Metabolic conversion rate under different reaction times [1] | Metabolic conversion rate at different protein concentrations [1] | Absorption and elimination in mice with diabetic nephropathy [2] | Effect of ticlopidine (CYP2C37 inhibitor) on metabolism of the component (residual content) (CYP2C37) | Effect of fluconazole (CYP2C11 inhibitor) on metabolism of the component (residual content) (CYP2C11)
prevented the metabolism | – | – | – | CC1(C)[C@@H](O[C@H]2O[C@H](C(=O)O)[C@@H](O)[C@H](O)[C@H]2O[C@@H]2O[C@H](C(=O)O)[C@@H](O)[C@H](O)[C@H]2O)CC[C@]2(C)[C@H]3C(=O)C=C4[C@@H]5C[C@@](C)(C(=O)O)CC[C@]5(C)CC[C@@]4(C)[C@]3(C)CC[C@@H]12 [Glycyrrhizic acid] | increased with time, however, saturated after 60 min | initially increased with the increase in protein concentration | greater absorption and delayed elimination | prevented the metabolism | –
– | not affected | – | – | COc1ccc(-c2coc3cc(O[C@@H]4O[C@H](CO)[C@@H](O)[C@H](O)[C@H]4O)ccc3c2=O)cc1 [Ononin] | increased with time, however, saturated after 60 min | initially increased with the increase in protein concentration | greater absorption and delayed elimination | – | –
– | – | – | – | CC(C)(O)[C@@H]1CC[C@](C)([C@H]2[C@@H](O)C[C@@]3(C)[C@@H]4C[C@H](O[C@@H]5O[C@H](CO)[C@@H](O)[C@H](O)[C@H]5O)[C@H]5C(C)(C)[C@@H](O[C@@H]6OC[C@@H](O)[C@H](O)[C@H]6O)CC[C@@]56C[C@@]46CC[C@]23C)O1 [Astragaloside IV] | increased with time, however, saturated after 60 min | initially increased with the increase in protein concentration | greater absorption and delayed elimination | prevented the metabolism | prevented the metabolism
– | not affected | – | – | COc1ccc(-c2coc3cc(O[C@@H]4O[C@H](CO)[C@@H](O)[C@H](O)[C@H]4O)ccc3c2=O)cc1O [Calycosin-7-O-β-D-glucoside] | increased with time, however, saturated after 60 min | initially increased with the increase in protein concentration | greater absorption and delayed elimination | – | –
prevented the metabolism | – | – | – | COc1ccc(-c2coc3cc(O)ccc3c2=O)cc1 [Formononetin] | increased with time, however, saturated after 60 min | initially increased with the increase in protein concentration | greater absorption and delayed elimination | – | prevented the metabolism
– | – | prevented the metabolism | prevented the metabolism | COc1ccc(-c2coc3cc(O)ccc3c2=O)cc1O | increased with time, however, saturated after 60 min | initially increased with the increase in protein concentration | greater absorption and delayed elimination | – | –
